In patent publication EP3827825A1, “USE OF 3, 4-DIARYLPYRAZOLES AS ANTIBACTERIAL AGENTS” (Wageningen Universiteit, priority 2019, dated 2021):
In brackets after ≈: the same amount, converted by molar mass.

How the values were obtained:
S. aureus Newman = assay: Minimal inhibitory concentration (MIC), double-dilution in broth, OD600; format: cell-based, Staphylococcus aureus Newman; details: unit assumed
Procedure: (§1) In short, a stock solution of 5 mg/mL of HKIs in DMSO was made. This stock was diluted to 50 µg/mL in broth in a 96 well plate. Dilutions were made (factor 2) directly in the plate with a multi-channel pipet. Bacteria cultured in suspension overnight were then added to the plate (except negative control) and the plate was incubated for 24 hours. After 24 hours the OD600 was measured using a spectrophotometer. A positive control (with bacteria, without HKI) was also measured on each plate.
Bacterial strains used in this study for antibacterial susceptibility testing (Table S2) were propagated using standard microbiological procedures. Minimal inhibitory concentrations (MICs) were determined following a standard double-dilution method (42), 73. […] For M. marinum, MICs were determined in Middlebrook 7H9 broth (Difco) and MICs were determined after 3 days incubation at 30 °C.
(§2) Grow the bacterial colonies to be tested from single colonies on an agar plate in LB broth or suitable bacterial growth medium overnight at 37°C. Prepare a 5 mg/mL stock solution of compounds to be tested in DMSO. One 96-well plate per bacterial strain was prepared. First, put 50 uL of medium to each well. Add 48 µL of medium to all wells in row A. Pipet 2 µL of antimicrobial master stock into the top well (row A). Beware, the antimicrobial concentration will be diluted 2x after adding the bacterial culture. Total volume in each well will be 100 µL. In A11, pipet 2 µL of DMSO. Make a serial dilution from row A to row H, pipetting 50 µL from the previous row into the new one. Mix well by pipetting up and down. Discard the last 50 µL so that there is 50 µl in each well In a clean, new plastic pipetting cup, dilute the overnight bacterial culture 100 times. Add 100 µL of bacterial overnight culture to 9900 µL of medium. Mix the suspension well. Once the serial dilutions are complete for all antimicrobial compounds, add 50 µL of diluted overnight bacterial culture to each well (except column 12). Mix by pipetting or put the plate on the shaker. Per 2 plates, close with parafilm around the edges and place in the incubator overnight. After overnight culturing, measure bacterial growth on the SpectraMax. The lowest concentration where no growth is observed is the MIC. To determine the MIB pipette 5 µL from each well of the 96 well plate where now growth was observed on to an LB agar plate, without antimicrobial. Put the plates in the incubator to grow overnight. The minimal concentration where no growth can be seen on the agar plate is the MBC.

S. suis = assay: as above; format: cell-based, Streptococcus suis; details: unit assumed
Procedure: as §1, with “each plate. The MICs were not determined in duplo/triplicate in the same experiment, however, the MICs of several HKIs were measured in different experiments and no major differences (max. 1x dilution) were found in the MICs between the experiments.” for “each plate.”
(§3) Bacterial strains used in this study for antibacterial susceptibility testing (Table S2) were propagated using standard microbiological procedures. Minimal inhibitory concentrations (MICs) were determined following a standard double-dilution method (42), 73. MICs were recorded as the lowest concentration of the compound where no visible growth was observed. After plating the dilutions around the MIC or growing them in fresh MH media, minimal bactericidal concentration (MBC) was recorded as the lowest concentration of the compound at which no colonies were formed or no growth was observed, respectively. For M. marinum, MICs were determined in Middlebrook 7H9 broth (Difco) and MICs were determined after 3 days incubation at 30 °C.
as §2

P. multocida = assay: as above; format: cell-based, Pasteurella multocida; details: unit assumed
Procedure: as §1, with “each plate. The MICs were not determined in duplo/triplicate in the same experiment, however, the MICs of several HKIs were measured in different experiments and no major differences (max. 1x dilution) were found in the MICs between the experiments.” for “each plate.”
as §3, §2

M. marinum = assay: Minimal inhibitory concentration (MIC), Middlebrook 7H9 broth, 3 days at 30 °C; format: cell-based, Mycobacterium marinum; details: unit assumed
Procedure: as §1, with “each plate. The MICs were not determined in duplo/triplicate in the same experiment, however, the MICs of several HKIs were measured in different experiments and no major differences (max. 1x dilution) were found in the MICs between the experiments.” for “each plate.”
as §3, §2

E. coli JW5503 = format: cell-based, Escherichia coli; details: unit assumed
Procedure: as §1, with “each plate. The MICs were not determined in duplo/triplicate in the same experiment, however, the MICs of several HKIs were measured in different experiments and no major differences (max. 1x dilution) were found in the MICs between the experiments.” for “each plate.”
as §3, §2

E. faecium Van A = assay: Minimal inhibitory concentration (MIC), double-dilution in broth, OD600; format: cell-based, Enterococcus faecium; details: unit assumed
Procedure: as §1, with “each plate. The MICs were not determined in duplo/triplicate in the same experiment, however, the MICs of several HKIs were measured in different experiments and no major differences (max. 1x dilution) were found in the MICs between the experiments.” for “each plate.”
as §3, §2

NRK-52E = assay: Cell toxicity, Alamar blue assay, 24 hours exposure; format: cell-based; details: Rattus norvegicus, read-out: IC50 NRK-52E (50 mg/mL stock)
Procedure: Toxicity was primarily determined by measuring cytotoxicity with the Alamar blue assay. In short, cells (HEK293, NRK-52E and Caco-2) were plated in 96-well plates and cultured overnight. HKI compounds were diluted to concentrations ranging from 0.39 to 500 µg/mL in serum-free medium and added to the cells.
After exposure, cells were incubated for 24 hours. Experiments were mostly performed by single measurement. […] After 24 hours HKIs were removed from the cells and Alamar blue was added, incubated for 45 minutes and fluorescence was measured on a spectrophotometer. Alamar blue measures the conversion of blue, low fluorescent resazurin into high fluorescent pink resorufin. This conversion can only be made in viable mitochondria in viable cells and therefore this dye provides a measure for cytotoxicity.

| Structure (SMILES) | MIC S. aureus Newman (S. aureus Newman) | MIC S. suis (S. suis) | MIC P. multocida (P. multocida) | MIC M. marinum (M. marinum) | MIC E. coli JW5503 (E. coli JW5503) | MIC E. faecium Van A (E. faecium Van A) | IC50 (NRK-52E) |
| --- | --- | --- | --- | --- | --- | --- | --- |
| O=[N+]([O-])c1ccc(COc2ccc(-c3[nH]nc(C(F)(F)F)c3-c3ccccc3)c(O)c2)cc1 [Sep-18, 5-(4-nitrobenzyl)oxy-2-[4-phenyl-5-(trifluoromethyl)-1∼{H}-pyrazol-3-yl]phenol] | 6.25 µg/mL (≈ 13.7 µM) | 12.5 µg/mL (≈ 27.4 µM) | > 50 µg/mL | > 50 µg/mL | 12.5 µg/mL (≈ 27.4 µM) | 12.5 µg/mL (≈ 27.4 µM) | ~14.7 µg/mL (≈ 32.3 µM) |
| C=C(C)COc1ccc(-c2[nH]nc(C(F)(F)F)c2-c2ccccc2OC)c(O)c1 [Sep-15, 2-[4-(2-methoxyphenyl)-5-(trifluoromethyl)-1∼{H}-pyrazol-3-yl]-5-(2-methylallyloxy)phenol] | 3.13 µg/mL (≈ 7.74 µM) | 12.5 µg/mL (≈ 30.9 µM) | > 50 µg/mL | 50 µg/mL (≈ 124 µM) | 6.25 µg/mL (≈ 15.5 µM) | 6.25 µg/mL (≈ 15.5 µM) | ~7.62 µg/mL (≈ 18.8 µM) |
| COc1ccc(-c2c(C(F)(F)F)n[nH]c2-c2ccc(OCc3ccc([N+](=O)[O-])cc3)cc2O)cc1 [Sep-6, 2-[4-(4-methoxyphenyl)-5-(trifluoromethyl)-1∼{H}-pyrazol-3-yl]-5-(4-nitrobenzyl)oxyphenol] | 3.13 µg/mL (≈ 6.45 µM) | 12.5 µg/mL (≈ 25.8 µM) | > 50 µg/mL | 50 µg/mL (≈ 103 µM) | 12.5 µg/mL (≈ 25.8 µM) | 6.25 µg/mL (≈ 12.9 µM) | 8.42 µg/mL (≈ 17.3 µM) |
| Cc1ccc(COc2ccc(-c3n[nH]c(C(F)(F)F)c3-c3cccc4ccccc34)c(O)c2)cc1 [Sep-4, 5-(4-methylbenzyl)oxy-2-[4-(1-naphthyl)-5-(trifluoromethyl)-1∼{H}-pyrazol-3-yl]phenol] | 3.13 µg/mL (≈ 6.6 µM) | 25 µg/mL (≈ 52.7 µM) | > 50 µg/mL | 50 µg/mL (≈ 105 µM) | > 50 µg/mL | 25 µg/mL (≈ 52.7 µM) | 13.9 µg/mL (≈ 29.2 µM) |
| CCCCCOc1ccc(-c2n[nH]c(C(F)(F)F)c2-c2ccccc2Cl)c(O)c1 [Sep-5, 2-[4-(2-chlorophenyl)-5-(trifluoromethyl)-1∼{H}-pyrazol-3-yl]-5-pentoxyphenol] | 3.13 µg/mL (≈ 7.37 µM) | 12.5 µg/mL (≈ 29.4 µM) | > 50 µg/mL | 50 µg/mL (≈ 118 µM) | > 50 µg/mL | 12.5 µg/mL (≈ 29.4 µM) | ~7.46 µg/mL (≈ 17.6 µM) |
| C=C(C)COc1ccc(-c2[nH]nc(C(F)(F)F)c2-c2ccc(OC)cc2)c(O)c1 [Sep-7, 2-[4-(4-methoxyphenyl)-5-(trifluoromethyl)-1∼{H}-pyrazol-3-yl]-5-(2-methylallyloxy)phenol] | 6.25 µg/mL (≈ 15.5 µM) | 12.5 µg/mL (≈ 30.9 µM) | > 50 µg/mL | > 50 µg/mL | 6.25 µg/mL (≈ 15.5 µM) | 12.5 µg/mL (≈ 30.9 µM) | ~7.49 µg/mL (≈ 18.5 µM) |
| COc1ccc(-c2c(C(F)(F)F)n[nH]c2-c2ccc(OCc3ccccc3F)cc2O)cc1 [Sep-8, 5-(2-fluorobenzyl)oxy-2-[4-(4-methoxyphenyl)-5-(trifluoromethyl)-1∼{H}-pyrazol-3-yl]phenol] | 3.13 µg/mL (≈ 6.83 µM) | 12.5 µg/mL (≈ 27.3 µM) | > 50 µg/mL | > 50 µg/mL | 50 µg/mL (≈ 109 µM) | 6.25 µg/mL (≈ 13.6 µM) | ~14.5 µg/mL (≈ 31.7 µM) |
| COc1ccccc1-c1c(C(F)(F)F)n[nH]c1-c1ccc(OCc2ccccc2)cc1O [Sep-17, 5-benzoxy-2-[4-(2-methoxyphenyl)-5-(trifluoromethyl)-1∼{H}-pyrazol-3-yl]phenol] | 6.25 µg/mL (≈ 14.2 µM) | 25 µg/mL (≈ 56.8 µM) | > 50 µg/mL | > 50 µg/mL | 12.5 µg/mL (≈ 28.4 µM) | 12.5 µg/mL (≈ 28.4 µM) | ~8.97 µg/mL (≈ 20.4 µM) |
| COc1ccccc1-c1c(-c2ccc(OCC=C(C)C)cc2O)n[nH]c1C(F)(F)F [Sep-30, 2-[4-(2-methoxyphenyl)-5-(trifluoromethyl)-1∼{H}-pyrazol-3-yl]-5-(3-methylbut-2-enoxy)phenol] | 6.25 µg/mL (≈ 14.9 µM) | 25 µg/mL (≈ 59.7 µM) | > 50 µg/mL | > 50 µg/mL | 6.25 µg/mL (≈ 14.9 µM) | 12.5 µg/mL (≈ 29.9 µM) | ~17.2 µg/mL (≈ 41.2 µM) |
| COc1ccc(-c2c(-c3ccc(OC)c(C)c3O)n[nH]c2C(F)(F)F)cc1 [Sep-1, 3-methoxy-6-[4-(4-methoxyphenyl)-5-(trifluoromethyl)-1∼{H}-pyrazol-3-yl]-2-methyl-phenol] | 25 µg/mL (≈ 66.1 µM) | 50 µg/mL (≈ 132 µM) | > 50 µg/mL | > 50 µg/mL | 6.25 µg/mL (≈ 16.5 µM) | 50 µg/mL (≈ 132 µM) | 23.2 µg/mL (≈ 61.3 µM) |
| Cc1[nH]nc(-c2ccc(O)cc2O)c1-c1ccc(Br)cc1 [May-1, 4-[4-(4-bromophenyl)-5-methyl-1∼{H}-pyrazol-3-yl]resorcinol] | 12.5 µg/mL (≈ 36.2 µM) | 6.25 µg/mL (≈ 18.1 µM) | 12.5 µg/mL (≈ 36.2 µM) | 50 µg/mL (≈ 145 µM) | 3.13 µg/mL (≈ 9.07 µM) | 12.5 µg/mL (≈ 36.2 µM) | 5.95 µg/mL (≈ 17.2 µM) |
| COc1ccccc1-c1c(C(F)(F)F)n[nH]c1-c1ccc(OCc2ccc(C)cc2)cc1O [Sep-16, 2-[4-(2-methoxyphenyl)-5-(trifluoromethyl)-1∼{H}-pyrazol-3-yl]-5-(4-methylbenzyl)oxy-phenol] | 6.25 µg/mL (≈ 13.8 µM) | 25 µg/mL (≈ 55 µM) | > 50 µg/mL | > 50 µg/mL | 50 µg/mL (≈ 110 µM) | 12.5 µg/mL (≈ 27.5 µM) | ~8.72 µg/mL (≈ 19.2 µM) |
| CCOc1ccc(-c2n[nH]c(C(F)(F)F)c2-c2ccccc2)c(O)c1C [Sep-3, 3-ethoxy-2-methyl-6-[4-phenyl-5-(trifluoromethyl)-1∼{H}-pyrazol-3-yl]phenol] | 12.5 µg/mL (≈ 34.5 µM) | 25 µg/mL (≈ 69 µM) | > 50 µg/mL | > 50 µg/mL | 6.25 µg/mL (≈ 17.2 µM) | 25 µg/mL (≈ 69 µM) | ~15.5 µg/mL (≈ 42.8 µM) |
